The values below come from patent US20090203708A1, “NOVEL SUBSTITUTED-1-H-QUINAZOLINE-2,4-DIONE DERIVATIVES, PREPARATION METHOD THEREOF AND PHARMACEUTICAL COMPOSITION CONTAINING THE SAME” (Korea Research Institute of Chemical Technology, priority 2006, published 2009).

Data set [1] addresses human serotonin 5-HT6 receptor (Homo sapiens, UniProt P50406). Kind of data set: [3H]LSD binding assay for cloned 5-HT6 receptors.

pIC50: −log10 of the molar value.

human serotonin 5-HT6 receptor, sequence (P50406 whole entry): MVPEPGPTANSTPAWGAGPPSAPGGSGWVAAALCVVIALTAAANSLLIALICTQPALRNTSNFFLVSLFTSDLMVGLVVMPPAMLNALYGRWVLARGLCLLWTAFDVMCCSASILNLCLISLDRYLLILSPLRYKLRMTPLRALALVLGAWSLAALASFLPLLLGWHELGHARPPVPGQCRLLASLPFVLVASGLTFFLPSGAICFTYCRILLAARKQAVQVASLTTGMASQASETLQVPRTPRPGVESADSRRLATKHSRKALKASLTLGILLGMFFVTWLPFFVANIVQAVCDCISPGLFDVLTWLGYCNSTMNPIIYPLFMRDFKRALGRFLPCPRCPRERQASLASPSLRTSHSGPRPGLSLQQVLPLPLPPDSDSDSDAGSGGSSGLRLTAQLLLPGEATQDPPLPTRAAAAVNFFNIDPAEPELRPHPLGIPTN

In turn, `COC(=O)c1ccc(Cn2c(=O)c3c(N4CCN(C)CC4)cc(Cl)cc3n(Cc3ccccc3)c2=O)cc1` [Example 38, 4-[1-benzyl-7-chloro-5-(4-methyl-piperazin-1-yl)-2,4-dioxo-1,4-dihydro-2H-quinazoline-3-ylmethyl]-benzoic acid methyl ester] gave a melting point of 90 to 94 °C. Besides, the negative logarithm of the IC50 (pIC50) in data set [1] was 8.57.
The corresponding values for `COc1cccc(Cn2c(=O)c3c(N4CCNCC4)cc(Cl)cc3n(Cc3ccccc3)c2=O)c1` [Example 64, 1-benzyl-7-chloro-3-(3-methyoxy-benzyl)-5-piperazin-1-yl-1H-quinazoline-2,4-dione] are 124 to 130 °C and 8.19.
The like results for `CN1CCN(c2cc(Cl)cc3c2c(=O)n(Cc2cccc(O)c2)c(=O)n3Cc2ccccc2)CC1` [Example 29, 1-benzyl-7-chloro-3-(3-hydroxy-benzyl)-5-(4-methyl-piperazin-1-yl)-1H-quinazoline-2,4-dione] were, in that order, 234 to 236 °C and 7.82.
The corresponding values for `CN1CCN(c2cc(Cl)cc3c2c(=O)n(-c2ccccc2)c(=O)n3Cc2ccccc2)CC1` [Example 8, 1-benzyl-7-chloro-5-(4-methyl-piperazin-1-yl)-3-phenyl-1H-quinazoline-2,4-dione] are 111 to 119 °C and 6.78.
`CN1CCN(c2cc(Cl)cc3c2c(=O)n(Cc2ccc(C#N)cc2)c(=O)n3Cc2ccccc2)CC1` [Example 37, 4-[1-benzyl-7-chloro-5-(4-methyl-piperazin-1-yl)-2,4-dioxo-1,4-dihydro-2H-quinazoline-3-ylmethyl]-benzonitrile] gave a melting point of 99 to 105 °C. In data set [1], this compound showed a negative-log IC50 (pIC50) of 7.57.
The like results for `CN1CCN(c2cc(Cl)cc3c2c(=O)n(Cc2cccc(N)c2)c(=O)n3Cc2ccccc2)CC1` [Example 35, 3-(3-amino-benzyl)-1-benzyl-7-chloro-5-(4-methyl-piperazin-1-yl)-1H-quinazoline-2,4-dione] were, in that order, 260 to 265 °C and 7.40.
The like results for `COc1ccc(Cn2c(=O)c3c(N4CCN(C)CC4)cc(Cl)cc3n(Cc3ccccc3)c2=O)cc1` [Example 27, 1-benzyl-7-chloro-3-(4-methoxy-benzyl)-5-(4-methyl-piperazin-1-yl)-1H-quinazoline-2,4-dione] were, in that order, 81 to 89 °C and 7.99.
The corresponding values for `CN1CCN(c2cc(Cl)cc3c2c(=O)n(Cc2ccc(N)cc2)c(=O)n3Cc2ccccc2)CC1` [Example 36, 3-(4-amino-benzyl)-1-benzyl-7-chloro-5-(4-methyl-piperazin-1-yl)-1H-quinazoline-2,4-dione] are 93 to 96 °C and 7.66.
`CN1CCN(c2cc(Cl)cc3c2c(=O)n(Cc2ccncc2)c(=O)n3Cc2ccccc2)CC1` [Example 48, 1-benzyl-7-chloro-5-(4-methyl-piperazin-1-yl)-3-pyridin-4-ylmethyl-1H-quinazoline-2,4-dione] had a melting point of 94 to 100 °C. For the same compound, the pIC50 in data set [1] is 7.48.
The like results for `CC(C)CCn1c(=O)c2c(N3CCN(C)CC3)cc(Cl)cc2n(Cc2ccccc2)c1=O` [Example 5, 1-benzyl-7-chloro-3-(3-methyl-butyl)-5-(4-methyl-piperazin-1-yl)-1H-quinazoline-2,4-dione] were, in that order, 62 to 68 °C and 8.44.
The like results for `O=c1c2c(N3CCNCC3)cc(Cl)cc2n(Cc2ccccc2)c(=O)n1Cc1ccccc1` [Example 57, 1,3-dibenzyl-7-chloro-5-piperazin-1-yl-1H-quinazoline-2,4-dione] were, in that order, 115 to 123 °C and 8.47.
The like results for `CN1CCN(c2cc(Cl)cc3c2c(=O)n(Cc2ccc([N+](=O)[O-])cc2)c(=O)n3Cc2ccccc2)CC1` [Example 33, 1-benzyl-7-chloro-5-(4-methyl-piperazin-1-yl)-3-(4-nitro-benzyl)-1H-quinazoline-2,4-dione] were, in that order, 109 to 113 °C and 7.81.
In turn, `O=c1c2c(N3CCNCC3)cc(Cl)cc2n(Cc2ccccc2)c(=O)n1Cc1ccccc1O` [Example 65, 1-benzyl-7-chloro-3-(2-hydroxy-benzyl)-5-piperazin-1-yl-1H-quinazoline-2,4-dione] came in with a melting point of 113 to 130 °C. In data set [1], this compound gave a pIC50 of 8.23.
